Measurements reported in US20260263421A1, “Method of Mitigating Radiation Injury with Geranylgeranyl Transferase Inhibitors” (BioVentures, LLC, priority 2022, published 2026).

Key:
[1] = system: small intestine of male C57BL/6J mice after 12 Gy PBI; experiment: 12 Gy γ-ray partial body irradiation (PBI) mouse model, intestinal injury and body weight at 2 weeks; assay type: in vivo
From the text: In addition, GGTi-298 (commercially available, MedChemExpress, Monmouth Junction, NJ) mitigated adverse effects of 12 Gy γ-ray PBI on villus height, crypt depth and crypt width. […] This bacterium is inversely associated with obesity, diabetes, inflammation and metabolic disorders. Lastly, PBI-induced increases in the percentage of Turicibacter and Clostridium species were mitigated by GGTi-2133. Several Clostridium species are known to be pathogenic, while an increase in Turicibacter depletes CD8+ lymphocytes in the gut, which can adversely affect gut immune function.
Data are represented as mean+/−standard deviation (SD; n=5 to 8 mice per group). “PBI” refers to partial body irradiation, and “Sham” refers to no PBI. The notations “a & b” refer to statistically significant difference from sham-irradiation and PBI, respectively. […] Both sham-irradiated mice and the PBI group received intraperitoneal administration of vehicle. […]
FIGS. 5A-5D are photomicrographs showing olfactomedin 4 (OLFM4) staining in the crypts of sham irradiated vehicle treated mice (FIGS. 5A), 12 Gy PBI plus vehicle treated mice (FIGS. […] 5D). Colors represent staining intensities: yellow (dark), red (medium), and green (weak). FIG. 5E is a bar graph showing the average staining intensity for dark, medium, and weak immunoreactivity obtained by analyzing 10 randomly selected crypts under 100× magnification from each mouse. Data are presented as mean+/−SD (n=5 to 8). The notation “a & b” refer to statistically significant difference from sham and PBI, respectively.
FIG. 6A is an H&E stained small intestinal section (20× magnification) to indicate how the villus height, crypt depth, and crypt width were measured with computerized analysis. […] Data are represented as mean+/−SD. The notation “a & b” refer to statistically significant difference from sham and PBI, respectively. Both sham-irradiated mice and the PBI group received intraperitoneal administration of vehicle.
Villus height and crypt depth were measured in 30 randomly selected villi and crypts (20× magnification), MSA was measured in 5 randomly selected areas (20× magnification), and enterocyte length and the length of their nucleus were measured in 3 enterocytes/villus in 10 villi (100× magnification) for each mouse.
Neutrophils and lymphocytes were scored under 40× magnification. Macrophages were scored in 30 villi under 100× magnification.
GGTi-2133 treatment increases the number of intestinal proliferating cells after PBI: Two proliferation markers (PCNA and Ki-67) were used. […] Cells were scored under 40× magnification.
Cells were scored under 20× magnification.
GGTi-2133 increases the expression of intestinal stem cell marker olfactomedin 4 (OLFM4) after PBI: The inventors assayed OLFM4 protein with immunohistochemistry and computerized image analysis to classify the immunoreactive regions as “dark,” “medium,” or “weak” based on staining intensity.
GGTi-298 treatment attenuates intestinal structural damage following PBI: In order to ensure another formulation of GGTi provides similar mitigation against intestinal damage following PBI, the inventors used GGTi-298 (MedChemExpress). […] Villus height, and crypt depth and width were measured in 30 randomly selected villi and crypts (20× magnification) for each mouse.

PANC-1 cell line = experiment: Clonogenic assay (colony forming ability); assay type: cell-based, human; conditions: dose-dependent
[2] = system: PSN-1 human pancreatic cancer cell line; experiment: MTT assay of cell proliferation and metabolic rate; assay type: cell-based; conditions: 3 concentrations, once a day for 4 days, time-dependent and dose-dependent
Experimental: (§1) Human pancreatic cancer cell lines (PANC-1, BxPC-3, PSN-1) and a human prostate cancer cell line (LNCaP) were cultured in vitro at 37° C. and 5% CO2 and incubated with GGTi-2133 at 3 different concentrations. Cell proliferation and metabolic rate were measured with an MTT assay once a day for a total of 4 days. GGTi-2133 reduced the cell proliferation rate in all 4 cell lines in a dose-dependent manner. […] Finally, GGTi-2133 reduced the metabolic activity in LNCaP cells exposed to ionizing radiation.
(§2) FIG. 10F is a bar graph showing cell proliferation and metabolic rate in the LNCaP cell line were reduced to a greater extent after combined treatment with 2 Gy radiation plus GGTi-2133 treatment, in comparison to singular treatment with either 2 Gy radiation or GGTi-2133. Data are represented as mean+/−SD (n=4).

[3] = system: BxPC-3 human pancreatic adenocarcinoma cell line; experiment: MTT assay of cell proliferation and metabolic rate; assay type: cell-based; conditions: 3 concentrations, once a day for 4 days, time-dependent and dose-dependent
Experimental: as §1, §2

[4] = system: PANC-1 human pancreatic epithelioid carcinoma cell line; experiment: MTT assay of cell proliferation and metabolic rate; assay type: cell-based; conditions: 3 concentrations, once a day for 4 days, time-dependent and dose-dependent
Experimental: as §1, §2

PSN-1 cell line = experiment: Clonogenic assay (colony forming ability); assay type: cell-based, human; conditions: dose-dependent
[5] = system: LNCaP androgen-sensitive human prostate adenocarcinoma cell line; experiment: MTT assay of cell proliferation and metabolic rate, with or without 2 Gy radiation; assay type: cell-based
Experimental: as §1, §2

[6] = system: cecal content microbiome of male C57BL/6J mice; experiment: Microbiome analysis of cecal content on day 3.5 after 12 Gy PBI; assay type: in vivo, mouse; conditions: 2.5 mg/kg at 24 and 72 h
Experimental: FIGS. 9A-9C are pie charts showing the distribution of different bacterial strains in the cecal content of sham-irradiated vehicle treated mice (FIGS. 9A), 12 Gy PBI plus vehicle treated mice (FIG. 9B), and mice treated with […] and 2.5 mg/kg GGTi-2133 in two administrations (FIG. 9C).
GGTi-2133 alters the percent of 3 bacterial species in the cecal content of mice on day 3.5 after PBI: Male C57BL/6J mice were exposed to 12 Gy PBI and administered GGTi-2133 (2.5 mg/kg) at 24 hours and 72 hours after irradiation. A sample of cecal content was aseptically collected 3.5 days after PBI. […] There were 8 mice in each group. […] GGTi-2133 increased the percentage of Akkermansia muciniphila in irradiated mice. The percentage of Turicibacter and Clostridium species were increased in PBI plus vehicle treated mice as compared to sham-irradiated vehicle-treated mice. The percentage of Turicibacter and Clostridium species were reduced in PBI plus GGTi-2133 treated mice compared to PBI plus vehicle treated mice.

[7] = system: small intestine crypts of male C57BL/6J mice after 12 Gy PBI; experiment: Surviving crypt assay (PCNA) in small intestine on day 3.5 after 12 Gy PBI; assay type: in vivo, mouse; conditions: 2.5 mg/kg i.p. at 24 h and 72 h, jejunum day 3.5, vs PBI plus vehicle
Experimental: FIGS. 8A-8C are photomicrographs of small intestine sections stained for Proliferating Cell Nuclear Antigen (PCNA) in sham-irradiated vehicle treated mice (FIGS. 8A), 12 Gy PBI plus vehicle treated mice (FIG. 8B), and mice treated with 12 Gy PBI and 2.5 mg/kg GGTi-2133 on (FIG. 8C). Cross-sections from three different mice are shown in each of FIG. 8A, FIG. 8B, and FIG. 8C. Each mouse received two intraperitoneal injections of either vehicle or 2.5 mg/kg GGTi: the first injection was administered 24 hours after PBI and the second one was administered 72 hours after irradiation. Intestinal tissue was harvested 84 hours after irradiation. FIG. 8D is a bar graph showing the average number of surviving crypts from two intestinal cross sections that were used for data analysis. Crypts were scored under 20× magnification. Data are represented as mean+/−SD (n=8 animals per group). The notation “a & b” refer to statistically significant difference from sham and PBI, respectively.
GGTi-2133 treatment enhances surviving crypt number on day 3.5 after PBI: Male C57BL/6J mice were exposed to 12 Gy PBI and administered GGTi-2133 (2.5 mg/kg) at 24 hours and 72 hours after irradiation. A specimen of the jejunum was collected on day 3.5 after irradiation. The presence of more than five PCNA positive cells grouped together in a crypt was recorded as a surviving crypt. […]

[8] = Safe dose in humans (scientific literature); assay type: in vivo, human; conditions: body surface conversion factor; 54 mg/kg in humans
Experimental: Based on scientific literature, it is understood that GGTi-2418 can be administered safely to humans in doses up to 2,060 mg/m^2 (54 mg/kg body weight) on days 1-5 of each 21-day cycle. By using a body surface conversion factor, 54 mg/kg in humans compares to 660 mg/kg in mice. In humans, GGTi can generally be administered in an effective amount with a dose escalation from about 200 mg/m^2 to 2060 mg/m^2 per day on days 1-5 of each 21-day cycle. In rats, the maximum tolerated dose for GGTi is 200 mg/kg for a single dosing or 150 mg/kg/day for 7 consecutive days. In addition to intraperitoneal administration, oral gavage, intravenous infusion, and subcutaneous administration are other acceptable modes of administration. While GGTi-298 and GGTi-2133 are the preferred GGTis in the method of the present invention, use of other GGTis are expected to show the same effects although the magnitude of the effects may not be as great.

[9] = days 1-5 of each 21-day cycle; cited from earlier work
[10] = 12 Gy PBI, 5 or 10 mg/kg body weight, vs vehicle
[11] = 12 Gy PBI, i.p. 1 or 2.5 mg/kg three times per week starting 24 h after PBI, 2 weeks, vs vehicle
[12] = 12 Gy PBI, i.p. 1 or 2.5 mg/kg, vs PBI plus vehicle

COC(=O)[C@H](CC(C)C)NC(=O)c1ccc(NC[C@@H](N)CS)cc1-c1cccc2ccccc12 [GGTi-298]
PBI-induced increase in crypt depth [1, 10]: attenuated
PBI-induced increase in crypt width [1, 10]: attenuated
PBI-induced reduction in villus height [1, 10]: attenuated

CC(C)C[C@H](NC(=O)c1ccc(NCc2cnc[nH]2)cc1-c1cccc2ccccc12)C(=O)O [GGTi-2133]
colony forming ability (PANC-1 cell line): suppresses
proliferation rate and metabolic activity (MTT) [2]: suppresses
proliferation rate and metabolic activity (MTT) [3]: suppresses
proliferation rate and metabolic activity (MTT) [4]: suppresses
OLFM4 (intestinal stem cell marker) staining ([1]; 2 weeks after 12 Gy γ-ray PBI, immunohistochemistry, 1 or 2.5 mg/kg): restored
PBI-induced body weight loss ([1]; 12 Gy PBI, 2.5 mg/kg body weight i.p., vs vehicle): significantly less
proliferating cell number in the crypts (PCNA and Ki-67) ([1]; 12 Gy PBI, 2.5 mg/kg body weight, vs PBI plus vehicle): significantly increased
PBI-induced decrease in mucosal surface area (MSA) [1, 11]: attenuated
PBI-induced increase in crypt depth [1, 11]: attenuated
PBI-induced increase in enterocyte length [1, 11]: attenuated
PBI-induced increase in enterocyte nuclear length [1, 11]: attenuated
PBI-induced reduction in villus height [1, 11]: attenuated
Alcian blue staining intensity of goblet cells [1, 12]: significantly enhanced
intraepithelial macrophage (CD68) number per villus [1, 12]: decrease
lymphocyte (CD3ε positive) number in the intestine [1, 12]: significant recovery
neutrophil (MPO positive) number in the intestine [1, 12]: significant recovery
number of mucus secreting goblet cells (Alcian blue) [1, 12]: elevated
stromal macrophage (CD68) number per villus [1, 12]: decrease
colony forming ability (PSN-1 cell line): suppresses
proliferation rate and metabolic activity (MTT) ([5]; 3 concentrations, once a day for 4 days, time-dependent and dose-dependent): suppresses
radiation-induced decline in proliferation rate and metabolic activity ([5]; combined with 2 Gy radiation vs either treatment alone): enhances
percentage of Akkermansia muciniphila in cecal content ([6]; irradiated mice): increased
percentage of Clostridium species in cecal content ([6]; vs PBI plus vehicle): reduced
percentage of Turicibacter species in cecal content ([6]; vs PBI plus vehicle): reduced
number of surviving crypts [7]: significantly (p=0.002) increased

Cc1nc[nH]c1CN1CCN(C(=O)N[C@@H](CC(C)C)C(=O)O)[C@@H](Cc2ccccc2)C1=O [GGTi-2418]
mouse equivalent of the safe human dose [8]: 660 mg/kg
dose that can be administered safely to humans [9]: up to 2,060 mg/m^2
dose that can be administered safely to humans, per body weight [9]: ≤ 54 mg/kg body weight
